Where “and” joins values, the source holds several entries; their conditions need not be identical. Equal values may be shown once. Entries after “also recorded” stand apart in the source; their conditions may differ.
System: somatic signs of morphine withdrawal
Test: Somatic signs of morphine withdrawal precipitated by naloxone
Type: in vivo, DBA/2J mice
Design: key to Score: Rearing / Score: Teeth chatter / Score: Body shakes / Score: Wall climbing / Score: Backpedaling / Score: Hopping: score of 1 per occurrence and episode; key to Global Withdrawal Score (sum of all scores): sum of behavior scores, 1 point per occurrence/episode
Conditions: for Global Withdrawal Score (sum of all scores) / Score: Backpedaling / Score: Body shakes / Score: Hopping / Score: Rearing / Score: Teeth chatter / Score: Wall climbing: individual mice, 20 min interval; for Global Withdrawal Score (sum of all scores): after naloxone (5 mg/kg, i.p.); for Score: Backpedaling / Score: Body shakes / Score: Hopping / Score: Rearing / Score: Teeth chatter / Score: Wall climbing: number of observations after naloxone (5 mg/kg, i.p.)
Experimental: In addition to hyperalgesia, withdrawal from repeated administration of morphine produces somatic signs of withdrawal and conditioned place aversion. We tested the effects of CP612 on these responses. […] Two hours after this last injection of saline or morphine, mice were administered naloxone (5 mg/kg, i.p.) to precipitate somatic signs of withdrawal and conditioned place aversion. Withdrawal from repeated administration of morphine evoked somatic signs of withdrawal (Figure 11, A–C, and Supplemental Figure 2); only the highest dose of CP612 (40 mg/kg) reduced them (Figure 11, A–C) [H PKC inhibition (3, n = 62) = 33.34, P < 0.001]. Withdrawal from repeated administration of morphine also evoked conditioned place aversion (Figure 11, A and C) [F PKC inhibition (5,78) = 7.16, P < 0.001; mice receiving repeated administration of saline with vehicle versus mice receiving repeated administration of morphine with vehicle, P < 0.001], and this was not modified by CP612 at any dose tested (all P > 0.079).
The place conditioning apparatus was an acrylic box enclosed in light- and sound-attenuating, ventilated chambers (MED Associates). The box had 2 compartments separated by a removable sliding door. […] The dimensions of each compartment were 13.5 × 27 × 17 cm. Infrared light beams and photodetectors located along the walls of the box measured general activity and location of the mouse in each compartment, which were recorded using Activity Monitor version 7.0.5.10 software (Med Associates). On day 0 (pretest), drug-naive mice were acclimated for 15 minutes to the place conditioning apparatus without the sliding door, so they had free access to both compartments of the apparatus. This established a baseline side preference, based on the amount of time spent in each compartment. […] On day 6 (conditioning day), mice were pretreated with vehicle (10 mL/kg, i.p.) or CP612 (5, 10, 20, or 40 mg/kg, i.p.), followed by a single injection of morphine (100 mg/kg, i.p.) 4 hours later. Two hours after this last injection of morphine, mice were administered naloxone (5 mg/kg, i.p.), to precipitate withdrawal, and were immediately confined to 1 side of the conditioning apparatus for 20 minutes. During this conditioning period, mice were filmed (Raspberry Pi Camera) to assess somatic signs of withdrawal ([39]). Given the limited number of cameras and the poor quality of some videos, we were only able to film a subset of mice. The following behaviors were given a score of 1 per occurrence and episode: body shakes (paw tremors and wet dog shakes), teeth chatter, rearing, hopping, wall climbing, and backpedaling. These scores were summed to obtain a global withdrawal score and were obtained from an independent observer who was blind to the experimental conditions. A subset of videos was scored by 2 observers, to ensure internal validity (Cronbach’s α = 0.980, Correlation Observer r = 0.97, slope 1.15, P < 0.005). On day 7 (test day), mice were placed in the conditioning apparatus with free access to both compartments, for 15 minutes. We recorded the time spent in each compartment.
Gregory-Flores et al. (Supplementary Table and Figures)
Figure S2. Behavioral scores of morphine withdrawal precipitated by naloxone. Male mice

N[C@H](CNC(=O)C1(c2ccc(Cl)cc2)CCCC1)c1ccc(C(=O)Nc2ccncc2)cc1 [CP612] was tested, and the “Global Withdrawal Score (sum of all scores)” value (Morphine + CP612 10 mg/kg) was 26 and 36 and 21 and 32 and 23 and 19 and 28 and 25 and 22 and 8 and 11 and 13 and 12, the “Score: Backpedaling” value (Morphine + CP612 10 mg/kg) was 0 and 2 and 1 and the “Score: Body shakes” value (Morphine + CP612 10 mg/kg) was 6 and 9 and 7 and 10 and 2 and 11 and 8 and 1. The “Score: Hopping” value (Morphine + CP612 10 mg/kg) was 0 and 1, the “Score: Rearing” value (Morphine + CP612 10 mg/kg) was 16 and 15 and 9 and 10 and 7 and 13 and 12 and 2 and 3 and 8 and the “Score: Teeth chatter” value (Morphine + CP612 10 mg/kg) was 3 and 4 and 2 and 0 and 1. The “Score: Wall climbing” value (Morphine + CP612 10 mg/kg) was 1 and 7 and 2 and 3 and 0 and 4 and 5, the “Global Withdrawal Score (sum of all scores)” value (Morphine + CP612 40 mg/kg) was 17 and 23 and 18 and 11 and 8 and 4 and 10 and 13 and 9 and the “Score: Backpedaling” value (Morphine + CP612 40 mg/kg) was 3.5 and 0 and 1. For the same compound, the “Score: Body shakes” value (Morphine + CP612 40 mg/kg) was 1 and 5 and 9 and 2 and 0, the “Score: Hopping” value (Morphine + CP612 40 mg/kg) was 0.5 and 0 and 1 and the “Score: Rearing” value (Morphine + CP612 40 mg/kg) was 9 and 14 and 2 and 4 and 1 and 6 and 7 and 8. The “Score: Teeth chatter” value (Morphine + CP612 40 mg/kg) was 0.5 and 3 and 5 and 2 and 1 and 0, the “Score: Wall climbing” value (Morphine + CP612 40 mg/kg) was 2 and 1 and 0 and 3 and the “Somatic signs of naloxone-precipitated morphine withdrawal” value (male DBA/2J mice, CP612 10 mg/kg i.p. (low dose)) was “evoked signs of withdrawal”. For the same compound, the “Effect on somatic signs of naloxone-precipitated morphine withdrawal” value (male DBA/2J mice, CP612 40 mg/kg i.p., 40 mg/kg) was “attenuated; also recorded: reduced; also recorded: decreased”.

Reference: article PMC12016938, “A small molecule PKCε inhibitor reduces hyperalgesia induced by paclitaxel or opioid withdrawal” (JCI Insight, 2025)
